Experimental findings from PubChem BioAssay (NCI) are described below.

“And” between values parts separate entries of the source, which are not always exact repeats. Identical values can stand only once.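 Grown in 96-well plates, cells were treated for 48 hours with each compound at five concentrations. Insufficient inhibition: endpoint recorded as highest concentration tested. GI50: concentration for 50% inhibition of growth. TGI: total growth inhibition.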

Among the test systems are DLD-1 colon; SNB-78 CNS; XF 498 CNS; MCF7 breast; MDA-N; MDA-MB-231 breast; MDA-MB-435; RXF-631 renal; BT-549 breast.
Assay in all cases: inhibition of tumour cell growth, NCI panel, 48 h

Turning to `O=C(O)CCSC(=O)Nc1ccc([N+](=O)[O-])cc1`, the TGI with DLD-1 colon and with SNB-78 CNS was greater than 100 µM in each case.
Take `CCOCC(=O)N[C@H]1CCc2cc(OC)c(OC)c(OC)c2-c2ccc(OC)c(=O)cc21`: the TGI in the experiment with DLD-1 colon was greater than 100 µM; with XF 498 CNS, greater than 60 µM; with SNB-78 CNS it was greater than 100 µM; in the experiment with MCF7 breast it was greater than 100 µM; with MDA-N, less than 0.0196 µM; in the experiment with MDA-MB-231 breast it was greater than 100 µM. The TGI in the experiment on MDA-MB-435 is less than 0.0196 µM.
As to `O=C1c2ccccc2C(=O)N1CCc1ncc[nH]1`, the TGI in the experiment with MCF7 breast, with MDA-N and with MDA-MB-435 was greater than 100 µM in each case.
Take `COCCCNC(=O)C1C(=O)C(=O)N(CCCOC)C1=O` (stereo unspecified): the TGI in the experiment with DLD-1 colon, in the experiment with SNB-78 CNS and in the experiment with RXF-631 renal was greater than 100 µM each time.
As for `O=C(CCN(C(=O)O)S(=O)(=O)c1ccc(NC(=O)c2ccccc2)cc1)NC1CCCCC1`, the TGI in the experiment with DLD-1 colon, in the experiment with XF 498 CNS and with SNB-78 CNS was greater than 100 µM in each case.
Consider `COC1(OC)CC2OC1C1N=NN(C(=O)OC(C)(C)C)C21` (stereo unspecified), for which the TGI in the experiment with DLD-1 colon, in the experiment on XF 498 CNS, with SNB-78 CNS and in the experiment with RXF-631 renal was greater than 100 µM each time.
Turning to `CCOC(=O)/C(=C\c1ccccc1)C(=O)O`, the TGI in the experiment with XF 498 CNS and in the experiment on SNB-78 CNS was greater than 100 µM throughout.
For the compound `O=C(CC1(O)C(=O)Nc2ccccc21)c1ccncc1` (stereo unspecified), the TGI with DLD-1 colon and in the experiment with SNB-78 CNS was greater than 100 µM each time.
Turning to `Nc1cccc(S(=O)(=O)NCC(=O)O)c1`, the TGI in the experiment with DLD-1 colon, with XF 498 CNS, in the experiment on SNB-78 CNS and with RXF-631 renal was greater than 100 µM throughout.
Turning to `O=C1C(Cl)=C(NCCN2CCOCC2)C(=O)c2ncccc21`, the figures for the GI50 in the experiment with MCF7 breast and in the experiment with MDA-MB-435 were 1.28 µM and 0.267 µM, respectively. In addition, the TGI in the experiment with MCF7 breast was 3.4 µM and 3.31 µM; in the experiment with MDA-N, 0.389 µM; in the experiment with MDA-MB-231 breast it was 5.02 µM and 3.77 µM; with BT-549 breast, 3.21 µM and 3.03 µM; in the experiment with MDA-MB-435, 0.372 µM and 0.686 µM.
As for `C[C@@H]1OC(=O)N2CCCC(=C3SCCCS3)C12` (stereo partly specified), the TGI in the experiment on XF 498 CNS and in the experiment on SNB-78 CNS was greater than 100 µM each time.
For the compound `CC1CN1C(=O)NCCCCCCNC(=O)N1CC1C` (stereo unspecified), the TGI with DLD-1 colon, with XF 498 CNS, in the experiment with MCF7 breast, in the experiment with MDA-N, with MDA-MB-231 breast and with BT-549 breast was greater than 100 µM each time. Also, the TGI in the experiment with MDA-MB-435 was greater than 100 µM.
`O=C(O)C(=Cc1ccc(-c2ccccc2)cc1)C(=O)O`: the TGI in the experiment with MCF7 breast was 33.5 µM; with MDA-N, greater than 100 µM; in the experiment on MDA-MB-231 breast, 38.5 µM; in the experiment on BT-549 breast, 29.4 µM; in the experiment on MDA-MB-435, greater than 64.8 µM.
As to `CCN(CC)C(c1ccc(N(C)C)cc1)C(c1ccc(N(C)C)cc1)N(CC)CC` (stereo unspecified), the TGI in the experiment with SNB-78 CNS and with RXF-631 renal was greater than 73 µM in each case.
Consider `O=[N+]([O-])c1ccc(C=NC2CCCCC2)cc1`, for which the TGI in the experiment with DLD-1 colon, in the experiment with XF 498 CNS, in the experiment with SNB-78 CNS and in the experiment on RXF-631 renal was greater than 100 µM each time.
Consider `O=C(CC1(O)C(=O)Nc2c(Cl)ccc(Cl)c21)c1ccc(F)cc1` (stereo unspecified), for which the TGI was greater than 100 µM in the experiment with DLD-1 colon, 77.1 µM in the experiment on XF 498 CNS, greater than 100 µM in the experiment with SNB-78 CNS and greater than 100 µM in the experiment on RXF-631 renal.
In the case of `O=C(CCc1cc(-c2ccccc2)nc(=S)[nH]1)N(Cc1ccccc1)Cc1ccccc1`, the TGI in the experiment on DLD-1 colon, with XF 498 CNS and in the experiment on SNB-78 CNS was greater than 100 µM in each case.
Turning to `Cc1cc(Cl)cc2c1NC(=O)C2(O)CC(=O)c1ccco1` (stereo unspecified), the TGI with DLD-1 colon was greater than 100 µM; in the experiment on XF 498 CNS, greater than 100 µM; in the experiment on SNB-78 CNS, greater than 100 µM; in the experiment on MDA-N, 22.9 µM; with MDA-MB-231 breast, greater than 100 µM; in the experiment with RXF-631 renal, greater than 100 µM. Also, the TGI is greater than 100 µM in the experiment with BT-549 breast and 14.2 µM in the experiment on MDA-MB-435.
Take `COc1ccc2c(c1)[n+](=O)c(C(=O)C/C(=N/OCCCc1ccccc1)C(=O)NC13CC4CC(CC(C4)C1)C3)c(C)n2[O-]`: the TGI in the experiment with DLD-1 colon, in the experiment on XF 498 CNS, in the experiment with SNB-78 CNS and with RXF-631 renal was greater than 100 µM throughout.
Turning to `N#C/C(=C\c1ccc2ccccc2c1)c1ccccc1`, the TGI was greater than 100 µM with DLD-1 colon, 84.7 µM in the experiment on SNB-78 CNS and greater than 100 µM in the experiment on RXF-631 renal.
For the compound `Cc1cc(N(CCC#N)CCC#N)ccc1/C=C1\N=C(c2cc([N+](=O)[O-])ccc2Cl)N(c2cccc(Cl)c2)C1=O`, the TGI in the experiment on DLD-1 colon, with SNB-78 CNS and in the experiment with RXF-631 renal was greater than 100 µM throughout.
As for `COc1ccc(C(=O)C#Cc2cnc(OC)nc2OC)cc1`, the results for the TGI with MCF7 breast, in the experiment with MDA-N and in the experiment with MDA-MB-231 breast were 2.54 µM, 3.89 µM and 86700 µM, respectively. The values for the GI50 in the experiment on BT-549 breast and in the experiment on MDA-MB-435 were 25400 µM and 28200 µM, respectively.
`O=C(O)C(CS)Nc1c2ccccc2nc2ccccc12` (stereo unspecified): the TGI in the experiment with DLD-1 colon and in the experiment on XF 498 CNS was greater than 100 µM each time.
On to `Nc1c(-c2ccc(Cl)cc2)[n+]([O-])c2ccccc2[n+]1[O-]`, for which the TGI in the experiment with DLD-1 colon, in the experiment on XF 498 CNS and in the experiment with SNB-78 CNS was greater than 100 µM each time.
With `COc1ccc2nc3c(C(=O)NCCN(C)C)cccc3nc2c1`, the TGI was greater than 1 µM in the experiment with DLD-1 colon and 72 µM in the experiment on SNB-78 CNS.
Turning to `CNC(=O)C1CCc2nnc(-c3ccccc3)n21` (stereo unspecified), the TGI with DLD-1 colon, in the experiment on SNB-78 CNS and in the experiment with RXF-631 renal was greater than 100 µM throughout.
On to `O=C(N/C(=C\c1cccc([N+](=O)[O-])c1)c1nc2ccc([N+](=O)[O-])cc2[nH]1)c1ccccc1`, for which the TGI in the experiment on DLD-1 colon is greater than 100 µM; with XF 498 CNS it was 59.8 µM; with SNB-78 CNS, greater than 100 µM; with RXF-631 renal it was greater than 100 µM.
For the compound `CC(C)(CO)N1CCN(C(=S)Nc2ccccc2)CC1`, the TGI in the experiment on MCF7 breast, with MDA-N, in the experiment with MDA-MB-231 breast, in the experiment with BT-549 breast and in the experiment on MDA-MB-435 was greater than 100 µM in each case.
Take `COc1cc(C(=O)CBr)c(OC)cc1C`: the TGI with MCF7 breast, in the experiment on MDA-N, in the experiment with MDA-MB-231 breast, in the experiment with BT-549 breast and in the experiment on MDA-MB-435 was greater than 100 µM in each case.
`O=C1c2cccc([N+](=O)[O-])c2C(=O)N1c1ncn[nH]1`: the TGI in the experiment with MCF7 breast is greater than 100 µM; in the experiment with MDA-N it was greater than 100 µM; in the experiment on MDA-MB-231 breast, greater than 100 µM; in the experiment with BT-549 breast it was 90 µM; with MDA-MB-435, greater than 100 µM.
With `CC(C)(C)c1cc(CCC(=O)Nc2ccc(Cl)cc2)nc(NC#N)n1`, the TGI in the experiment on DLD-1 colon and in the experiment on SNB-78 CNS was greater than 100 µM throughout.
For `COc1ccc(N2C(=O)/C(=C/c3ccc(N(CCC#N)CCC#N)cc3C)N=C2c2cc([N+](=O)[O-])ccc2Cl)cc1`, the TGI was greater than 100 µM in the experiment with DLD-1 colon; 8.12 µM in the experiment on XF 498 CNS; greater than 100 µM in the experiment on SNB-78 CNS; greater than 46.4 µM in the experiment on MCF7 breast; 4.98 µM in the experiment on MDA-N; 49.4 µM in the experiment with MDA-MB-231 breast. Besides, the TGI in the experiment on BT-549 breast was greater than 100 µM; in the experiment with MDA-MB-435, 6.1 µM.
Regarding `CCOC(=O)/C(C#N)=C/c1[nH]c(C(=O)OCc2ccccc2)c(C)c1C`, the TGI with DLD-1 colon and in the experiment with RXF-631 renal was greater than 100 µM throughout.
`CN(C)CCNC(=O)c1cccc2ccc(-c3ccncc3)nc12`: the results for the TGI in the experiment with DLD-1 colon and with SNB-78 CNS were 31 µM and greater than 100 µM, respectively.
Consider `Cc1ccc(NC(=O)CC(=O)n2nc(C)c(N=Nc3ccccc3C(=O)O)c2C)cc1`, for which the TGI with DLD-1 colon, with XF 498 CNS, with SNB-78 CNS and in the experiment on RXF-631 renal was greater than 100 µM throughout.
Take `NC12CC3CC(C1)CC(C(=O)O)(C3)C2`: the TGI in the experiment on DLD-1 colon, in the experiment with XF 498 CNS and with SNB-78 CNS was greater than 100 µM throughout.
Regarding `CC(SC(=S)N1CCOCC1)c1cc2oc(=O)n(C)c2cc1Cl` (stereo unspecified), the TGI with DLD-1 colon, with XF 498 CNS and in the experiment with SNB-78 CNS was greater than 100 µM in each case.
For `CCC[CH2][Sn]1([CH2]CCC)[O]C(=O)CN=Cc2c(ccc3ccccc23)[O]1`, the GI50 was 0.811 µM in the experiment with DLD-1 colon, greater than 100 µM in the experiment with XF 498 CNS, 0.282 µM with SNB-78 CNS and 0.0181 µM in the experiment on RXF-631 renal. Besides, the TGI in the experiment with DLD-1 colon was greater than 100 µM; with XF 498 CNS, greater than 100 µM; in the experiment with SNB-78 CNS it was 1.4 µM; with RXF-631 renal, 0.0331 µM.
For `CCCC1N2CCCCC2[C@@H]2c3[nH]c4ccccc4c3CCN12` (stereo partly specified), the TGI in the experiment on DLD-1 colon, in the experiment on XF 498 CNS and in the experiment with SNB-78 CNS was greater than 100 µM each time.
On to `C/C(CC(=O)Nc1cc(C)ccc1C)=N\NC(=O)c1ccncc1`, for which the TGI with DLD-1 colon, in the experiment on SNB-78 CNS and with RXF-631 renal was greater than 100 µM in each case.
With `COc1ccc(NC(=O)CC(=O)N/N=C/c2ccc(N(CCC#N)S(C)(=O)=O)cc2)cc1`, the TGI with DLD-1 colon, in the experiment on SNB-78 CNS and with RXF-631 renal was greater than 100 µM each time.
With `CC(=O)O[C@H]1C(=O)[C@@]2(C)C(C(OC(=O)c3ccccc3)[C@]3(O)CC(OC(=O)[C@H](OC(=O)CCC(=O)O)C(NC(=O)c4ccccc4)c4ccccc4)C(C)=C1C3(C)C)C1(OC(C)=O)COC1C[C@@H]2O` (stereo partly specified), the TGI with MCF7 breast is greater than 100 µM; with MDA-N, less than 0.01 µM. Further, the GI50 in the experiment with MDA-MB-231 breast is < 0.0171 µM and 0.0486 µM.
Take `NC1=NC(c2ccccc2)CC(c2cc(Cl)ccc2O)=N1` (stereo unspecified): the TGI in the experiment on DLD-1 colon stood at 25.9 µM; with XF 498 CNS, 33.7 µM; with SNB-78 CNS it was 42.1 µM.
In the same order, the values of `COc1cc(Nc2nc3ccccc3nc2-c2cccs2)cc(OC)c1OC` are greater than 100 µM, 76.6 µM and greater than 100 µM.
Turning to `O=C(O)c1nn(-c2ccccc2-c2n[nH]c(=O)[nH]c2=O)c(=O)[nH]c1=O`, the TGI in the experiment with MCF7 breast, with MDA-N, in the experiment on MDA-MB-231 breast, in the experiment on BT-549 breast and in the experiment on MDA-MB-435 was greater than 100 µM throughout.
